Data from PubChem BioAssay AID624274 (Broad Institute, 2012).
Values joined by “and” are separate entries in the source; they are usually repeats but may differ in a detail not shown here. Equal values may be shown once.

Target: Protein disulfide-isomerase (Homo sapiens) (UniProt P07237)
Assay: PDI inhibitors, insulin turbidity readout, dose response, biochemical, absorbance, cherry-picked samples, set 2 (AID 624274)
Conditions: PDI insulin reduction turbidity, absorbance 650 nm

Sequence of Protein disulfide-isomerase (Homo sapiens) (P07237 whole entry, looked up): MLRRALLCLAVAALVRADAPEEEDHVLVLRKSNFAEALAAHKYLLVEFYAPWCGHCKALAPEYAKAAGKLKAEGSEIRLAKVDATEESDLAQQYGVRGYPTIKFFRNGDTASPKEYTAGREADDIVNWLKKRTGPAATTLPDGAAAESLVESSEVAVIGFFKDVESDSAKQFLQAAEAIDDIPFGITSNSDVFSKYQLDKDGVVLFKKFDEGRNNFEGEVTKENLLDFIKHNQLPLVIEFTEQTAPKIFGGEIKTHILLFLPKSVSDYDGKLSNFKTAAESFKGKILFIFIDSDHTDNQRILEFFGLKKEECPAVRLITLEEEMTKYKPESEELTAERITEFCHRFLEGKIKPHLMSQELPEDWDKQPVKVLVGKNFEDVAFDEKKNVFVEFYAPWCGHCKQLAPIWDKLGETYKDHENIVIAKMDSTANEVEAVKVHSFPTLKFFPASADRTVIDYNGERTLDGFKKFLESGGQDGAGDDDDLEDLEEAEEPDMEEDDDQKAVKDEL

Compound | AC50
C[C@]12CC[C@@H]3c4ccc(O[C@@H]5O[C@H](C(=O)O)[C@@H](O)[C@H](O)[C@H]5O)cc4CC[C@H]3[C@@H]1C[C@@H](O)[C@@H]2O | 15.7 µM
O=C(CCC1CCCCC1)NCCN1C2=NC[C@H](Cc3ccc(O)cc3)N2C[C@H]1Cc1ccc(O)cc1 | 19.5 µM
COc1cccc2c1C(=O)c1c(O)c3c(c(O)c1C2=O)CC(O)(C(C)=NO)CC3OC1CC(N)C(O)C(C)O1 (stereo not drawn) | 16.9 µM
C/C=C(\C)C(=O)NCCN1C2=NC[C@H](Cc3ccc(O)cc3)N2C[C@H]1Cc1ccc(O)cc1 | 15.4 µM
NNC(=O)c1cc(-c2ccc(O)cc2)nc2ccc(Br)cc12 | 19.5 µM
C[C@@H]1O[C@@H](O[C@@H]2C(=O)c3c(O)cc(O)cc3O[C@H]2c2ccc(O)c(O)c2)[C@H](O)[C@H](O)[C@H]1O | 10.2 µM
O=C(O)C1C(c2ccccc2)C(C(=O)Oc2ccc(O)cc2)C1c1ccccc1 (stereo not drawn) | 14.7 µM
C[C@@H]1O[C@@H](O[C@H]2[C@H](O)[C@@H](O)[C@H](Oc3c(-c4ccc(O)c(O)c4)oc4cc(O)cc(O)c4c3=O)O[C@@H]2CO)[C@H](O)[C@H](O)[C@H]1O | 4.28 µM
O=C(NC(Cc1ccc(O)cc1)C(=O)N=Nc1c(O)[nH]c2ccccc12)c1ccccc1 (stereo not drawn) | 19.5 µM
CCSc1nnc([C@H](Cc2c[nH]c3ccccc23)NC(=O)OC(C)(C)C)o1 | 19.5 µM
C[C@H](CO)N1C[C@H](C)[C@@H](CN(C)S(=O)(=O)c2ccc(F)cc2)Oc2ccc(NC(=O)Cc3cn(C)c4ccccc34)cc2C1=O | 19.5 µM
Cc1noc(C)c1S(=O)(=O)Nc1ccc2c(c1)CC(=O)N([C@@H](C)CO)C[C@@H](C)[C@H](CN(C)S(=O)(=O)c1ccc(F)cc1)O2 | 19.5 µM
Cc1cc(O)cc2c1C1CCC3(C)C(=O)CCC3C1C=C2 (stereo not drawn) | 19.5 µM
O=C1C[C@@H](c2ccc(O[C@@H]3O[C@H](CO)[C@@H](O)[C@H](O)[C@H]3O)cc2)Oc2cc(O)ccc21 | 15.6 µM
COC(=O)CC1OCC=C2CN3CCC45C6=CC(=O)C(=O)C([N+](=O)[O-])=C6NC4C1C2CC35 (stereo not drawn) | 8.03 µM
O=C1NC[C@H](Cc2ccccc2)N(C[C@H]2CCCN2C[C@H](Cc2ccccc2)N2C[C@H](Cc3ccc(O)cc3)N(CCc3ccccc3)C(=O)C2=O)C1=O | 6.5 µM
CCN1C[C@]2(COC(=O)c3ccccc3N)CC[C@H](OC)C34[C@@H]5C[C@H]6[C@H](OC)[C@@H]5[C@](O)(C[C@@H]6OC)[C@@](O)([C@H]13)[C@@H](OC)[C@@H]42 | 19.5 µM
C[C@@H]1O[C@@H](O[C@H]2[C@H](O)[C@@H](O)[C@H](Oc3c(-c4ccc(O)cc4)oc4cc(O)cc(O)c4c3=O)O[C@@H]2CO)[C@H](O)[C@H](O)[C@H]1O | 6.92 µM
O=c1c(OC2OC(CO)C(O)C(O)C2O)c(-c2ccc(O)c(O)c2)oc2cc(O)cc(O)c12 (stereo not drawn) | 8.92 µM
COC1/C=C/C=C(\C)Cc2cc(O)c(Cl)c(c2)N(C)C(=O)CC(OC(=O)C(C)C)C2(C)OC2C(C)C2CC1(O)NC(=O)O2 (stereo not drawn) | 9.59 µM
CCc1cc(OCCCCNCc2ccccc2)ccc1Cl | 10.6 µM
O=C(/C=C/c1ccc(NC(=O)c2ccccc2-c2ccccc2C(=O)O)cc1)c1ccccc1 | 11.4 µM
C[C@H]1CN([C@@H](C)CO)C(=O)Cc2cc(NC(=O)Nc3ccccc3)ccc2O[C@H]1CN(C)Cc1ccccc1 | 10.3 µM
Cc1c(O)ccc2c(CC(=O)N[C@@H](Cc3c[nH]c4ccccc34)C(=O)O)cc(=O)oc12 | 6.76 µM
C[C@@H]1O[C@@H](Oc2c(-c3ccc(O)c(O)c3)oc3cc(O)cc(O)c3c2=O)[C@H](O)[C@H](O)[C@H]1O | 2.48 µM and 5.59 µM
CC(C)(C)OC(=O)N[C@@H](Cc1c[nH]c2ccccc12)c1nnc(SCC(N)=O)o1 | 19.5 µM

Compound | AC50
O=C1NC[C@H](Cc2ccc(O)cc2)N(CC2CCCCC2)C1=O | 19.5 µM
Cc1ccc2nc(N3CCN(Cc4nnnn4C4CCCC4)CC3)c(C#N)cc2c1 | 4.05 µM
C[C@@H]1CN([C@@H](C)CO)C(=O)c2cccc(NS(C)(=O)=O)c2O[C@H]1CN(C)Cc1ccc(Oc2ccccc2)cc1 | 19.5 µM and 7.04 µM
O=S(=O)(c1ccccc1)N1N=C(c2ccc(O)cc2)CC1c1ccco1 (stereo not drawn) | 19.5 µM
CN(C)S(=O)(=O)c1ccc(Cl)c(NC(=O)CSc2nnnn2-c2ccc(O)cc2)c1 | 19.5 µM
O=c1c(O[C@H]2O[C@@H](CO)[C@H](O)[C@@H](O)[C@@H]2O)c(-c2ccc(O)cc2)oc2cc(O)cc(O)c12 | 0.0155 µM
Cn1cnnc1Sc1ccc(/C=C/C(=O)c2ccc(O)cc2)cc1[N+](=O)[O-] | 0.422 µM
C[C@H](CO)N1C[C@H](C)[C@H](CN(C)Cc2ccccc2)Oc2ccc(NC(=O)Nc3ccccc3)cc2CC1=O | 19.5 µM
C[C@H]1CN([C@@H](C)CO)C(=O)c2cc(NC(=O)Cc3cn(C)c4ccccc34)ccc2O[C@H]1CN(C)S(=O)(=O)c1ccc(F)cc1 | 19.5 µM
Cc1noc(C)c1S(=O)(=O)Nc1ccc2c(c1)CC(=O)N([C@H](C)CO)C[C@H](C)[C@H](CN(C)S(=O)(=O)c1ccc(F)cc1)O2 | 19.5 µM and 16.9 µM
COc1cc(-c2oc3cc(O)cc(O)c3c(=O)c2O[C@@H]2O[C@H](COC3O[C@@H](C)[C@H](O)[C@@H](O)[C@H]3O)[C@@H](O)[C@H](O)[C@H]2O)ccc1O (stereo partly drawn) | 7.96 µM
CC(C)Sc1nnc([C@H](Cc2c[nH]c3ccccc23)NC(=O)OC(C)(C)C)o1 | 19.5 µM
CC[C@]12c3[nH]c4cc(-c5ccco5)ccc4c3CCN1C(=O)[C@@H](CC(=O)NCCCOC)C[C@@H]2C(=O)N1CCN(C(=O)c2ccco2)CC1 | 16.7 µM
CC[C@]12c3[nH]c4cc(-c5ccco5)ccc4c3CCN1C(=O)[C@@H](CC(=O)NCc1ccc(OC)c(OC)c1)C[C@@H]2C(=O)N1CCN(C(=O)c2ccco2)CC1 | 4.25 µM
C[C@@H]1CN([C@@H](C)CO)C(=O)c2cc(NC(=O)Cc3cn(C)c4ccccc34)ccc2O[C@H]1CN(C)S(=O)(=O)c1ccc(F)cc1 | 2.08 µM
Oc1ccc(/C=C/c2nc(-c3ccccc3O)n(-c3ccccc3)n2)cc1 | 18.8 µM
C[C@H]1CN([C@@H](C)CO)C(=O)c2cccc(NS(C)(=O)=O)c2O[C@@H]1CN(C)Cc1ccc(Oc2ccccc2)cc1 | 19.5 µM
Cc1noc(C)c1S(=O)(=O)Nc1ccc2c(c1)CC(=O)N([C@H](C)CO)C[C@H](C)[C@H](CN(C)S(=O)(=O)c1ccccc1)O2 | 19.5 µM
COc1ccc(C(=O)Nc2ccccc2C(=O)NCc2ccco2)cc1 | 0.819 µM
C[C@@H]1O[C@@H](OC[C@H]2O[C@@H](Oc3c(-c4ccc(O)c(O)c4)oc4cc(O)cc(O)c4c3=O)[C@H](O)[C@@H](O)[C@@H]2O)[C@H](O)[C@H](O)[C@H]1O | 7.62 µM
CCOC(=O)C1(CCOc2ccccc2)CCN(Cc2cc(OC)c(O)cc2Cl)CC1 | 6.03 µM
COc1ccc(N2CCN(CC(=O)c3ccc(O)c(C)c3O)CC2)cc1 | 19.5 µM
COc1cc2cc(C(=O)N3CC(COS(C)(=O)=O)c4ccc(O)cc43)[nH]c2c(OC)c1OC (stereo not drawn) | 18 µM
C[C@@H]1O[C@@H](OC[C@@H]2O[C@H](Oc3c(-c4ccc(O)cc4)oc4cc(O)cc(O)c4c3=O)[C@@H](O)[C@H](O)[C@H]2O)[C@H](O)[C@H](O)[C@H]1O | 3.51 µM
C[C@H](CO)N1C[C@H](C)[C@@H](CN(C)S(=O)(=O)c2ccccc2)Oc2ccc(NC(=O)Cc3cn(C)c4ccccc34)cc2C1=O | 0.125 µM
Cc1c(-n2cc(C(=O)c3ccccc3O)cc(C#N)c2=O)c(=O)n(-c2ccccc2)n1C | 5.89 µM

Compound | AC50
Cc1cccn2c(CN(C)C3CCCc4ccccc43)c(C(=O)N3CCOCC3)nc12 (stereo not drawn) | 19.5 µM
CC(=O)OC[C@H]1O[C@@H](Oc2cc(O)cc3oc(-c4ccc(O)cc4)cc(=O)c23)[C@H](O[C@@H]2O[C@@H](C)[C@H](O)[C@@H](O)[C@H]2O)[C@@H](O)[C@@H]1O | 19.5 µM
O=c1c(O[C@@H]2O[C@H](CO)[C@@H](O)[C@H](O)[C@H]2O)c(-c2ccc(O)cc2)oc2cc(O)cc(O)c12 | 19 µM
C[C@H]1CN([C@@H](C)CO)C(=O)c2cc(NC(=O)Cc3cn(C)c4ccccc34)ccc2O[C@@H]1CN(C)S(=O)(=O)c1ccc(F)cc1 | 19.5 µM
Cc1ccc(S(=O)(=O)CCC(=O)c2ccc(O)cc2O)cc1 | 15.6 µM
CCN1C(=O)C2C(c3ccccc3F)NC(Cc3ccc(O)cc3)(C(=O)OC)C2C1=O (stereo not drawn) | 10.2 µM
C[C@H](CO)N1C[C@H](C)[C@H](CN(C)S(=O)(=O)c2ccc(F)cc2)Oc2ccc(NC(=O)Cc3cn(C)c4ccccc34)cc2C1=O | 19.5 µM
CCOc1cc(N2CCOCC2)c(OCC)cc1NC(=O)COC(=O)[C@H](Cc1c[nH]c2ccccc12)NC(C)=O | 19.5 µM
COc1ccccc1N1CCN(C(=O)C(=O)N/N=C/c2cccc(O)c2)CC1 | 19.5 µM
C[C@@H]1O[C@@H](Oc2c(-c3cc(O)c(O)c(O)c3)oc3cc(O)cc(O)c3c2=O)[C@H](O)[C@H](O)[C@H]1O | 9.8 µM
COc1cccc(NS(=O)(=O)c2ccc3c(c2)C2C=CCC2C(c2ccc(C(=O)O)cc2)N3)c1 (stereo not drawn) | 15.8 µM
CCOC(=O)C1(CCOc2ccccc2)CCN(Cc2ccc(O)c(Cl)c2)CC1 | 0.599 µM
CC(Cc1ccccc1Sc1ccccc1O)N(C)C (stereo not drawn) | 15.9 µM
Cc1c(O)ccc2c(CN3CCN(CCO)CC3)cc(=O)oc12 | 8.66 µM
CCOC(=O)c1c(CNCCN(CC)CC)n(C)c2cc(Br)c(OC)cc12 | 0.376 µM
Cc1noc(C)c1S(=O)(=O)Nc1ccc2c(c1)CC(=O)N([C@@H](C)CO)C[C@H](C)[C@H](CN(C)S(=O)(=O)c1ccc(F)cc1)O2 | 19.5 µM
Cc1c(O)ccc2c(CN3CCN(C/C=C/c4ccccc4)CC3)cc(=O)oc12 | 19.5 µM
Cc1n[nH]c(=O)c2c(NC(=O)CSc3nnnn3-c3ccc(O)cc3)oc(C)c12 | 19.5 µM
O=C(c1ccco1)N1CCN(Cc2cc(=O)oc3cc(O)ccc23)CC1 | 19.5 µM
COc1ccc2c(CC(=O)OCC(=O)N(C)c3c(N)n(Cc4ccccc4)c(=O)[nH]c3=O)coc2c1 | 5.45 µM
C[C@H](CO)N1C[C@H](C)[C@@H](CN(C)Cc2ccc(Oc3ccccc3)cc2)Oc2c(NS(C)(=O)=O)cccc2C1=O | 19.5 µM
CCN(CC)CCNC(=O)C(C(=O)c1ccccc1)n1ccccc1=O (stereo not drawn) | 2.16 µM
CCN1CC2(COC(=O)c3ccccc3N)CCC(OC)C34C5CC6C(OC)CC(O)(C5C6OC)C(O)(C(OC)C23)C14 (stereo not drawn) | 19.5 µM
Cc1noc(C)c1S(=O)(=O)Nc1ccc2c(c1)CC(=O)N([C@H](C)CO)C[C@H](C)[C@@H](CN(C)S(=O)(=O)c1ccc(F)cc1)O2 | 19.5 µM
C[C@@H]1CN([C@H](C)CO)C(=O)c2cccc(NS(C)(=O)=O)c2O[C@H]1CN(C)Cc1ccc(Oc2ccccc2)cc1 | 18.8 µM
COc1ccc(C2c3ccc(O)cc3Oc3ncn(CCN4CCOCC4)c(=N)c32)cc1OC (stereo not drawn) | 15.5 µM
